Source: ChEMBL document CHEMBL4622963, “Optimization of Nicotinamides as Potent and Selective IRAK4 Inhibitors with Efficacy in a Murine Model of Psoriasis” (ACS Med Chem Lett, 2020)

How the values were obtained:
[1] = molecular target: T1, Interleukin-1 receptor-associated kinase 4 (Homo sapiens, UniProt Q9NWZ3); experiment: Inhibition of IRAK4 (unknown origin) using FL-IPTSPITTTYFFFKKK peptide and ATP as substrate incubated for 60 mins by fluorescence based caliper assay
T1 sequence (Q9NWZ3 whole entry): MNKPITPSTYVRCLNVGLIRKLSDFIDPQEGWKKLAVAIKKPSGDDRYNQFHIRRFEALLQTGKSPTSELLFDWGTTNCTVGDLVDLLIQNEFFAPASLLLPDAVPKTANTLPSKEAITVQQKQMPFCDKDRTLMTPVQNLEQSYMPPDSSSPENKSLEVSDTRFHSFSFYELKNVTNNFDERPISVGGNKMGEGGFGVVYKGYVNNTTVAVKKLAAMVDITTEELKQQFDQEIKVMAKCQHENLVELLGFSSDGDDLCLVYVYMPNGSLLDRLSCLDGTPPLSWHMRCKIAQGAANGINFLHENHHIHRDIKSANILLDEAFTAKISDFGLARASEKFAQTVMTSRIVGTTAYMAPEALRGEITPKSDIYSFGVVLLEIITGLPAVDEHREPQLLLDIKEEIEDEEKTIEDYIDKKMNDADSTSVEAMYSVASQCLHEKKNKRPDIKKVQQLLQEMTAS

[2] = molecular target: T1, Interleukin-1 receptor-associated kinase 4; experiment: Inhibition of IRAK4 in human PBMC assessed as inhibition of LTA-induced IL-6 production preincubated for 30 mins followed by LTA-stimulation and measured after 5 hrs by ELISA; type: cell-based
[3] = molecular target: T1, Interleukin-1 receptor-associated kinase 4; experiment: Inhibition of IRAK4 in human whole blood assessed as inhibition of LTA-induced IL-6 production preincubated for 30 mins followed by LTA-stimulation and measured after 5 hrs by ELISA; type: tissue-based
[4] = Stability in human liver microsomes assessed as parent compound remaining; type: ADME, Microsome
[5] = Stability in mouse liver microsomes assessed as parent compound remaining measured after 10 mins; type: ADME, Microsome; settings: read-out: Stability
[6] = species on record: Homo sapiens; experiment: Selectivity index, ratio of IC50 for N-terminal His6-tagged human full length recombinant LCK expressed in baculovirus infected Sf21 cells to IC50 for IRAK4 (unknown origin)
[7] = species on record: Homo sapiens; experiment: Selectivity index, ratio of IC50 for recombinant N-terminal GST-tagged human cKit (544 to end residues) expressed in baculovirus infected Sf21 cells to IC50 for IRAK4 (unknown origin)
[8] = molecular target: TRAF2 and NCK-interacting protein kinase (Homo sapiens, UniProt Q9UKE5); experiment: Inhibition of human wild type partial length TNIK (D4-K311 residues) expressed in bacterial expression system
Chain of TRAF2 and NCK-interacting protein kinase (Q9UKE5 whole entry, the tested form may be a part): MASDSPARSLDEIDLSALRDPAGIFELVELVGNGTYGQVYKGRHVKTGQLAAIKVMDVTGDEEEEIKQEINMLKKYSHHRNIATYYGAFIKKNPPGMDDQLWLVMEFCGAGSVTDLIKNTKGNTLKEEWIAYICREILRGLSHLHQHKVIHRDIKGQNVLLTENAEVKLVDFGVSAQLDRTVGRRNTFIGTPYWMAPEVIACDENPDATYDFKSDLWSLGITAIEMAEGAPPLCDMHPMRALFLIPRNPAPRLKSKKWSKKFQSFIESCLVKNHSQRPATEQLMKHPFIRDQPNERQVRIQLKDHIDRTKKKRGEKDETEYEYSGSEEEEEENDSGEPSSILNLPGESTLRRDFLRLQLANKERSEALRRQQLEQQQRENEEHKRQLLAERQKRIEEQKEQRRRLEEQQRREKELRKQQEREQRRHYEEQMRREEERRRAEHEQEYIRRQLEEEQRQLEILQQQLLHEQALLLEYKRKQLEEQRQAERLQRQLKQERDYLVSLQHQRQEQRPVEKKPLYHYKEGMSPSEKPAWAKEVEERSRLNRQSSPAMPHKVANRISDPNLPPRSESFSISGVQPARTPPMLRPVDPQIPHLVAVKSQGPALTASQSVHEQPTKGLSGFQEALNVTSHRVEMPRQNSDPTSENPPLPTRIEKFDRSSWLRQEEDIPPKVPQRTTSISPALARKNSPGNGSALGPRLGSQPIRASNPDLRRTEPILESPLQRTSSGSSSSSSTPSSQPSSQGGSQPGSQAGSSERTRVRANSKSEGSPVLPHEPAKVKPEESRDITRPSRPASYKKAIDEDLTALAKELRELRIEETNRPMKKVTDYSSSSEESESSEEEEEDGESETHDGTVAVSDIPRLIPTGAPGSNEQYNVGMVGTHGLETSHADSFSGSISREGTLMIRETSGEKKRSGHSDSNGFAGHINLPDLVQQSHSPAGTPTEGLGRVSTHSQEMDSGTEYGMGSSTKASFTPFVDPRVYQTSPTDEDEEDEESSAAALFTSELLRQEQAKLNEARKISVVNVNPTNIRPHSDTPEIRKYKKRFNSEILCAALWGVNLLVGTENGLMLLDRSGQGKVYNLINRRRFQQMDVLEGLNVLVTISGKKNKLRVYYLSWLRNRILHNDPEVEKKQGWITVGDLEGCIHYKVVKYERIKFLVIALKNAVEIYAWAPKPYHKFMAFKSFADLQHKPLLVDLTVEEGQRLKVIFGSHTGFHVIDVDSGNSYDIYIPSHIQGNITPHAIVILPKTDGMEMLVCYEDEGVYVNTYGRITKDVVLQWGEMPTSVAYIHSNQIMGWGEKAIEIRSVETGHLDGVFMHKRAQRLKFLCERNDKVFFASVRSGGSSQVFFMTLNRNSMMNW

[9] = molecular target: T2, Mast/stem cell growth factor receptor Kit (Homo sapiens, UniProt P10721); experiment: Inhibition of recombinant N-terminal GST-tagged human cKit (544 to end residues) expressed in baculovirus infected Sf21 cells
T2 sequence (P10721 whole entry, the tested form may be a part): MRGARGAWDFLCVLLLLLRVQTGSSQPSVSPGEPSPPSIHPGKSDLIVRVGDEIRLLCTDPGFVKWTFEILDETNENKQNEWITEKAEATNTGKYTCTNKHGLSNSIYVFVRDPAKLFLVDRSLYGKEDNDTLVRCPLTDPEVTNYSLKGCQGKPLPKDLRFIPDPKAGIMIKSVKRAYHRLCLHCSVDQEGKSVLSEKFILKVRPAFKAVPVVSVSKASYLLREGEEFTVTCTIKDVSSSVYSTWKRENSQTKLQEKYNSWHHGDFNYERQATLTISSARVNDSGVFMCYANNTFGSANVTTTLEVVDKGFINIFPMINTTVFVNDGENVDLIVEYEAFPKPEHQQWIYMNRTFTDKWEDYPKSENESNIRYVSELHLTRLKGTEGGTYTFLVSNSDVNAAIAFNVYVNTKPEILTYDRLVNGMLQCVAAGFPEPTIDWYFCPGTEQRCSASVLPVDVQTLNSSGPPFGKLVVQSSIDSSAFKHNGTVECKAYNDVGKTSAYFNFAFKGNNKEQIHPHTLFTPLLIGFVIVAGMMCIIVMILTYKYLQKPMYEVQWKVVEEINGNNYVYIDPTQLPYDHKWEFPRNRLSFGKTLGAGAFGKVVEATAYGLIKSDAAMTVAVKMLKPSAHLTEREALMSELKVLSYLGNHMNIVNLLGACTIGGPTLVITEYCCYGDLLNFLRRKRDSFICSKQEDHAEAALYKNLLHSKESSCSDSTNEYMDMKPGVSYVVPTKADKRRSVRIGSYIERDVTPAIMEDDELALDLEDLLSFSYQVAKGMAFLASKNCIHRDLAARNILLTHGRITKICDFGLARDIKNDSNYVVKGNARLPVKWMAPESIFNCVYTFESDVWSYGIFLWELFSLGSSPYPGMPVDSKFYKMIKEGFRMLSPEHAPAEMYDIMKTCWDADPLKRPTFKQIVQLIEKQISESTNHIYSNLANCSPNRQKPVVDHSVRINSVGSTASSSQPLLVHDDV

[10] = molecular target: T3, Mitogen-activated protein kinase kinase kinase 7 (Homo sapiens, UniProt O43318); experiment: Inhibition of human wild type partial length TAK1 (1 to 303 residues) expressed in mammalian expression system
T3 sequence (O43318 whole entry): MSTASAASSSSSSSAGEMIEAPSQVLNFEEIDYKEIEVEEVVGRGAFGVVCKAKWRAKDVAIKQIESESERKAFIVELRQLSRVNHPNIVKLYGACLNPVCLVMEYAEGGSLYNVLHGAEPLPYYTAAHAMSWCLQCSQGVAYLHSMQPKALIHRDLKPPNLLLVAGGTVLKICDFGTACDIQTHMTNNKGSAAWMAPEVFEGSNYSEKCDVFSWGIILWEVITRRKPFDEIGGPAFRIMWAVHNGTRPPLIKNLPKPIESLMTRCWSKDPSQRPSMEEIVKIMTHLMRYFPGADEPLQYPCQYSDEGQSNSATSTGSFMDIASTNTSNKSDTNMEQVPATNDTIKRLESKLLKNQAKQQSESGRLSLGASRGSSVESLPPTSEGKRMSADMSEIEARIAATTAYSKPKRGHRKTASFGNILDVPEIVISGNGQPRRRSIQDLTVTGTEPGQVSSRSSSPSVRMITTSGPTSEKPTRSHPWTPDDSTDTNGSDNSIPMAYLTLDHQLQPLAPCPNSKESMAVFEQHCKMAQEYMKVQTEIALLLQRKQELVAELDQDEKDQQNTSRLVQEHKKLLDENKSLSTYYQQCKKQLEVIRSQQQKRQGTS

[11] = Permeability across apical to basolateral side in human Caco2 cells; settings: Caco-2
[12] = Clearance in mouse at 2 mg/kg, iv administered as infusion or 2 mg/kg, po via gavage measured up to 24 hrs by LC-MS analysis; type: ADME, organism-based; settings: in vivo
[13] = Volume of distribution at steady state in mouse at 2 mg/kg, iv administered as infusion or 2 mg/kg, po via gavage measured up to 24 hrs by LC-MS analysis; type: ADME, organism-based; settings: in vivo, read-out: Vdss
[14] = Half life in mouse at 2 mg/kg, iv administered as infusion or 2 mg/kg, po via gavage measured up to 24 hrs by LC-MS analysis; type: ADME, organism-based; settings: in vivo
[15] = AUC in mouse at 2 mg/kg, iv administered as infusion measured up to 24 hrs by LC-MS analysis; type: ADME, organism-based; parameters: time < 24 hr, dose 2 mg/kg, route intravenous; settings: in vivo
[16] = AUC in mouse at 2 mg/kg, po via gavage measured up to 24 hrs by LC-MS analysis; type: ADME, organism-based; parameters: time < 24 hr, dose 2 mg/kg, route oral; settings: in vivo
[17] = Oral bioavailability in mouse at 2 mg/kg administered via gavage measured up to 24 hrs by LC-MS analysis; type: ADME, organism-based; settings: in vivo
[18] = molecular target: Mast/stem cell growth factor receptor Kit (Homo sapiens, UniProt P10721, V559D); experiment: Inhibition of recombinant human partial length cKit Val559Asp mutant expressed in bacterial expression system
Chain of Mast/stem cell growth factor receptor Kit (Homo sapiens, UniProt P10721, V559D) (P10721 26-976 V559D limits assumed): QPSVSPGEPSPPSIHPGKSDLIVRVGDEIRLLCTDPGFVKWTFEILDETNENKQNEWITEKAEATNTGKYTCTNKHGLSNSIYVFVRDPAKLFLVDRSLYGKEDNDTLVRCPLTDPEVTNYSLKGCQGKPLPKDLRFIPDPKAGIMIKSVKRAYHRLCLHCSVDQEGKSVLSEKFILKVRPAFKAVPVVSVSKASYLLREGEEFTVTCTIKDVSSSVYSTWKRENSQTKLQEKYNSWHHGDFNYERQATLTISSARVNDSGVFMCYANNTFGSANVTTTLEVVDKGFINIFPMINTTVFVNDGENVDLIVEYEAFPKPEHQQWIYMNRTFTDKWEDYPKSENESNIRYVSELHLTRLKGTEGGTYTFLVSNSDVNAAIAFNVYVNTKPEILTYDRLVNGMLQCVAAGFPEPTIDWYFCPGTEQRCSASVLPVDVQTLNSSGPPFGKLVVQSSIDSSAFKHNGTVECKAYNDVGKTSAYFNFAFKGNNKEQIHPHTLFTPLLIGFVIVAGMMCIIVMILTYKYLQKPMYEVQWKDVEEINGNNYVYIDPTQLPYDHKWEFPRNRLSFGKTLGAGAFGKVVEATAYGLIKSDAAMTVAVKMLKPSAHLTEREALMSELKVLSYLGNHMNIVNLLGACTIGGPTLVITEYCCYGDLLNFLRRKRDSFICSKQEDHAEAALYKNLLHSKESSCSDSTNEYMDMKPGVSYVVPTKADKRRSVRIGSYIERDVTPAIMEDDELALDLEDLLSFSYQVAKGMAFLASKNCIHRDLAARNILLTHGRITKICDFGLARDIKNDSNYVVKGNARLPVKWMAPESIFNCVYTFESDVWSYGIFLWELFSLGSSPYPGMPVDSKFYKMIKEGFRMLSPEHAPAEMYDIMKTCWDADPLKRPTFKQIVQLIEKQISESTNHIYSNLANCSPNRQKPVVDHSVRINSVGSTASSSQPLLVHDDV

[19] = molecular target: Mast/stem cell growth factor receptor Kit (Homo sapiens, UniProt P10721, V559D/T670I); experiment: Inhibition of recombinant human partial length cKit Val559Asp/Thr670Ile double mutant expressed in bacterial expression system
Chain of Mast/stem cell growth factor receptor Kit (Homo sapiens, UniProt P10721, V559D/T670I) (P10721 26-976 V559D/T670I limits assumed): as the sequence (P10721 26-976 V559D limits assumed) above, with T645I counted along it

[20] = molecular target: T2, Mast/stem cell growth factor receptor Kit; experiment: Inhibition of cKit (unknown origin) by functional based assay

For `CC(C)Nc1cc(Nc2ccn3nccc3n2)ncc1C(=O)NC[C@@H](F)C(C)(C)O`, which IC50 [1] is on record?
Its IC50 is 3.2 nM.

What about the IC50 [2] of the same compound?
Its IC50 is 100 nM.

What about the IC50 [3] of the same compound?
Its IC50 is 340 nM.

And the Stability [4]?
The Stability was 100%.

What about the remaining at 10 min [5] of the same compound?
Its remaining at 10 min is 89%.

What about the Ratio IC50 [6] of the same compound?
The Ratio IC50 was 130.

And the Ratio IC50 [7]?
Its Ratio IC50 is 8.

What about the IC50 [8] of the same compound?
Its IC50 is 8 nM.

What about the IC50 [9] of the same compound?
The IC50 was 24 nM.

And the IC50 [10]?
The IC50 was 190 nM.

And the Papp A→B [11]?
Its Papp A→B is 6.9 ×10⁻⁶ cm/s.

What about the clearance [12] of the same compound?
Its clearance is 33 mL/min/kg.

What about the Vd [13] of the same compound?
Its Vd is 3 L/kg.

What about the half-life [14] of the same compound?
Its half-life is 2 h.

What about the AUC at 24 h [15] of the same compound?
The AUC at 24 h was 2.4 µM·h.

And the AUC at 24 h [16]?
The AUC at 24 h was 0.9 µM·h.

And the bioavailability [17]?
Its bioavailability is 36%.

What about the “inhibition (INH)” value [18] of the same compound?
Its value is “Active”.

What about the “inhibition (INH)” value [19] of the same compound?
The value was “Not Active”.

What about the IC50 [20] of the same compound?
The IC50 was 170 nM.
